Experimental data from ChEMBL document CHEMBL5625167, “In vitro bioevaluation and docking study of dihydrosphingosine and ethambutol analogues against sensitive and multi-drug resistant Mycobacterium tuberculosis” (Eur J Med Chem, 2023).
≈ marks a conversion by molar mass, not a printed value. Where “and” joins values, the source holds several entries; their conditions need not be identical. Equal values may be shown once.

Columns and labels:
Assay type in all cases: functional
[1] = test system: Mycobacterium tuberculosis; test: Antimycobacterial activity against isoniazid, rifampicin, ethambutol, streptomycin and levofloxacin resistant Mycobacterium tuberculosis clinical isolate 1576 incubated for 7 days by resazurin dye based colorimetric method analysis; conditions: Mycobacterium tuberculosis, 1576, 168 h; time 7 day
[2] = test system: Mycobacterium tuberculosis; test: (§1) Additive antimycobacterial activity against pre-extensively drug resistant Mycobacterium tuberculosis 1576 assessed as fractional inhibitory concentration index incubated for 7 days by resazurin dye based two-dimensional micro dilution checkerboard assay in presence of amikacin; conditions: time 7 day
[3] = test system: Mycobacterium tuberculosis; test: Additive antimycobacterial activity against pre-extensively drug resistant Mycobacterium tuberculosis 1576 assessed as fractional inhibitory concentration index incubated for 7 days by resazurin dye based two-dimensional micro dilution checkerboard assay in presence of ethambutol; conditions: time 7 day
[4] = test system: Mycobacterium tuberculosis; test: Additive antimycobacterial activity against pre-extensively drug resistant Mycobacterium tuberculosis 1576 incubated for 7 days by resazurin dye based two-dimensional micro dilution checkerboard assay in presence of levofloxacin; conditions: time 7 day
[5] = test system: Mycobacterium tuberculosis; test: Additive antimycobacterial activity against pre-extensively drug resistant Mycobacterium tuberculosis 1576 incubated for 7 days by resazurin dye based two-dimensional micro dilution checkerboard assay in presence of isoniazid; conditions: time 7 day
[6] = test system: Mycobacterium tuberculosis; test: Additive antimycobacterial activity against pre-extensively drug resistant Mycobacterium tuberculosis 1576 assessed as fractional inhibitory concentration index incubated for 7 days by resazurin dye based two-dimensional micro dilution checkerboard assay in presence of isoniazid; conditions: time 7 day
[7] = test system: Mycobacterium tuberculosis; test: Antimycobacterial activity against pre-extensively drug resistant Mycobacterium tuberculosis 1576 assessed as reduction in CFU count at 8 uM measured after 12 days relative to control; set-up: scale not given: the % may be the effect or the level left; conditions: time 12 day
[8] = test system: Mycobacterium tuberculosis; test: as §1, with “Synergistic” for “Additive”, “reduction in” for “fractional inhibitory”, “required to inhibit bacterial growth” for “index”, “rifampicin relative to control” for “amikacin”; set-up: scale not given: the % may be the effect or the level left; conditions: time 7 day
[9] = test system: Mycobacterium tuberculosis; test: Additive antimycobacterial activity against pre-extensively drug resistant Mycobacterium tuberculosis 1576 incubated for 7 days by resazurin dye based two-dimensional micro dilution checkerboard assay in presence of ethambutol; conditions: time 7 day
[10] = test system: Mycobacterium tuberculosis; test: Additive antimycobacterial activity against pre-extensively drug resistant Mycobacterium tuberculosis 1576 incubated for 7 days by resazurin dye based two-dimensional micro dilution checkerboard assay in presence of amikacin; conditions: time 7 day
[11] = test system: Mycobacterium tuberculosis; test: Synergistic antimycobacterial activity against pre-extensively drug resistant Mycobacterium tuberculosis 1576 incubated for 7 days by resazurin dye based two-dimensional micro dilution checkerboard assay in presence of rifampicin; conditions: time 7 day
[12] = test system: Mycobacterium tuberculosis; test: Additive antimycobacterial activity against pre-extensively drug resistant Mycobacterium tuberculosis 1576 assessed as fractional inhibitory concentration index incubated for 7 days by resazurin dye based two-dimensional micro dilution checkerboard assay in presence of levofloxacin; conditions: time 7 day
[13] = test system: Mycobacterium tuberculosis; test: Antimycobacterial activity against pre-extensively drug resistant Mycobacterium tuberculosis 1576 assessed as reduction in CFU count at 8 uM in presence of rifampicin measured after 12 days relative to control; set-up: scale not given: the % may be the effect or the level left; conditions: time 12 day
[14] = test system: Mycobacterium tuberculosis; test: Synergistic antimycobacterial activity against pre-extensively drug resistant Mycobacterium tuberculosis 1576 assessed as fractional inhibitory concentration index incubated for 7 days by resazurin dye based two-dimensional micro dilution checkerboard assay in presence of rifampicin; conditions: time 7 day
[15] = test system: Mycobacterium tuberculosis; test: Antimycobacterial activity against pre-extensively drug resistant Mycobacterium tuberculosis 1576 incubated for 7 days by resazurin dye based two-dimensional micro dilution checkerboard assay in presence of rifampicin; conditions: time 7 day
[16] = test system: Mycobacterium tuberculosis; test: Antimycobacterial activity against pre-extensively drug resistant Mycobacterium tuberculosis 1576 assessed as fractional inhibitory concentration index incubated for 7 days by resazurin dye based two-dimensional micro dilution checkerboard assay in presence of rifampicin; conditions: time 7 day
[17] = test system: Mycobacterium tuberculosis; test: Additive antimycobacterial activity against pre-extensively drug resistant Mycobacterium tuberculosis 1576 assessed as fractional inhibitory concentration index incubated for 48 hrs by micro dilution checkerboard assay in presence of rifampicin
[18] = test system: Mycobacterium tuberculosis; test: Antimycobacterial activity against pre-extensively drug resistant Mycobacterium tuberculosis 1576 incubated for 7 days by resazurin dye based two-dimensional micro dilution checkerboard assay in presence of 2-aminoheptadecan-1-ol; conditions: time 7 day
[19] = test system: Mycobacterium tuberculosis; test: Antimycobacterial activity against pre-extensively drug resistant Mycobacterium tuberculosis 1576 incubated for 7 days by resazurin dye based two-dimensional micro dilution checkerboard assay in presence of 1-((3,4,5-trimethoxybenzyl)oxy)heptadecan-2-amine; conditions: time 7 day
[20] = test system: Mycobacterium tuberculosis; test: Antimycobacterial activity against pre-extensively drug resistant Mycobacterium tuberculosis 1576 incubated for 7 days by resazurin dye based two-dimensional micro dilution checkerboard assay in presence of 1-(benzyloxy)heptadecan-2-amine; conditions: time 7 day

## CCCCCCCCCCCC(CO)NCC (configuration not stated)
[1]
  MIC: 64 µM (≈ 15.6 µg/mL)

## CCCCc1ccc(CCCCCCCCCC(N)CO)cc1 (configuration not stated)
[1]
  MIC: 2 µM (≈ 0.639 µg/mL)

## CCCCCCCCCCCCCCCCCC(N)CO (configuration not stated)
[1]
  MIC: 8 µM (≈ 2.4 µg/mL)

## CCCCc1ccc(CCCCCC(N)CO)cc1 (configuration not stated)
[1]
  MIC: 64 µM (≈ 16.9 µg/mL)

## CCCCc1ccc(CCCCCCCCCC(CO)NC(=O)OC(C)(C)C)cc1 (configuration not stated)
[1]
  MIC: 16 µM (≈ 6.71 µg/mL)

## CCCCCCCCCCCC(N)CO (configuration not stated)
[1]
  MIC: 32 µM (≈ 6.89 µg/mL)

## CCCCCCCCCCCCCCCCCCCC(CO)N(CC)CC (configuration not stated)
[1]
  MIC: > 64 µM

## CCCCCCCCCCCCCCCC(CNCCCCCC)NC(=O)OC(C)(C)C (configuration not stated)
[1]
  MIC: 8 µM (≈ 3.64 µg/mL)

## CCCCCCCCCCCCCCCC(N)CN (configuration not stated)
[1]
  MIC: 390 µM (≈ 105 µg/mL)

## CCCCCCCCCCCCCCCC(N)COCc1cc(OC)c(OC)c(OC)c1 (configuration not stated)
[2]
  fractional inhibitory concentration index (FICI): 0.75
[3]
  fractional inhibitory concentration index (FICI): 0.75
[4]
  FIC: 0.5
[5]
  FIC: 0.5
[6]
  fractional inhibitory concentration index (FICI): 1
[1]
  MIC: 8 µM (≈ 3.61 µg/mL)
[7]
  Activity: >99.9%
[8]
  Activity: 75%
[9]
  FIC: 0.5
[10]
  FIC: 0.5
[11]
  FIC: 0.25
[12]
  fractional inhibitory concentration index (FICI): 1
[13]
  Activity: >=99.9%
[14]
  fractional inhibitory concentration index (FICI): 0.5

## CCCCc1ccc(CCCCCC(CO)NC(=O)OC(C)(C)C)cc1 (configuration not stated)
[1]
  MIC: 16 µM (≈ 5.82 µg/mL)

## CCCCCCCCCCCCCCCCCC(N)COCc1ccccc1 (configuration not stated)
[1]
  MIC: 64 µM (≈ 24.9 µg/mL)

## CCCCCCCCCCCCCCCC(N)CO (configuration not stated)
[2]
  fractional inhibitory concentration index (FICI): 0.75
[15]
  FIC: 0.5
[3]
  fractional inhibitory concentration index (FICI): 0.75
[4]
  FIC: 0.5
[5]
  FIC: 0.5
[16]
  fractional inhibitory concentration index (FICI): 0.53
[6]
  fractional inhibitory concentration index (FICI): 0.63
[17]
  fractional inhibitory concentration index (FICI): 0.53
[1]
  MIC: 3.03 µM (≈ 0.823 µg/mL)
[9]
  FIC: 0.5
[10]
  FIC: 0.5
[12]
  fractional inhibitory concentration index (FICI): 1

## CCCCCCCCCCCCCCCCCCCC(CNCC)NC(=O)OC(C)(C)C (configuration not stated)
[1]
  MIC: 4 µM (≈ 1.82 µg/mL)

## CCCCCCCCCCCCCCCC(CO)NCCCCCC (configuration not stated)
[1]
  MIC: 64 µM (≈ 22.8 µg/mL)

## CCCCCCCCCCCC(CO)N(CC)CC (configuration not stated)
[1]
  MIC: 32 µM (≈ 8.69 µg/mL)

## CCCCc1ccc(CCCCCCCC(N)CO)cc1 (configuration not stated)
[1]
  MIC: 2 µM (≈ 0.583 µg/mL)

## CCCCCCCCCCCCCCCCCCCC(CN)NC(=O)OC(C)(C)C (configuration not stated)
[1]
  MIC: 64 µM (≈ 27.3 µg/mL)

## CCCCCCCCCCCCCCCC(CNCC)NC(=O)OC(C)(C)C (configuration not stated)
[1]
  MIC: 16 µM (≈ 6.38 µg/mL)

## CCCCCCCCCCCCCCCC(CO)N(CCCC)CCCC (configuration not stated)
[1]
  MIC: 8 µM (≈ 3.07 µg/mL)

## CCCCCCCCCCCCCCCCCCCC(N)COCc1ccccc1 (configuration not stated)
[1]
  MIC: 32 µM (≈ 13.4 µg/mL)

## CCCCCCCCCCCCCCCC(CO)N(CC)CC (configuration not stated)
[1]
  MIC: 32 µM (≈ 10.5 µg/mL)

## CCCCCCCCCCCCCCCC(N)COCc1ccccc1 (configuration not stated)
[2]
  fractional inhibitory concentration index (FICI): 0.63
[15]
  FIC: 0.5
[3]
  fractional inhibitory concentration index (FICI): 1.5
[4]
  FIC: 0.5
[5]
  FIC: 0.5
[16]
  fractional inhibitory concentration index (FICI): 0.56
[6]
  fractional inhibitory concentration index (FICI): 0.63
[17]
  fractional inhibitory concentration index (FICI): 0.56
[1]
  MIC: 4.5 µM (≈ 1.63 µg/mL)
[9]
  FIC: 0.5
[10]
  FIC: 0.5
[12]
  fractional inhibitory concentration index (FICI): 1

## CCCCCCCCCCCCCCCCCC(CN)NC(=O)OC(C)(C)C (configuration not stated)
[1]
  MIC: 16 µM (≈ 6.38 µg/mL)

## CCCCCCCCCCCC(CO)NCCCC (configuration not stated)
[1]
  MIC: 32 µM (≈ 8.69 µg/mL)

## CCCCCCCCCCCC(CNCC)NC(=O)OC(C)(C)C (configuration not stated)
[1]
  MIC: 64 µM (≈ 21.9 µg/mL)

## CCCCCCCCCCCCCCCC(N)CNCC (configuration not stated)
[1]
  MIC: 16 µM (≈ 4.78 µg/mL)

## CCCCCCCCCCCCCCCCCC(COCc1ccccc1)NCCCCCC (configuration not stated)
[1]
  MIC: 64 µM (≈ 30.3 µg/mL)

## CCCCCCCCCCCCCCCCCC(CO)NCCCC (configuration not stated)
[1]
  MIC: 32 µM (≈ 11.4 µg/mL)

## CCCCCCCCCCCCCCCC(CN)NC(=O)OC(C)(C)C (configuration not stated)
[1]
  MIC: 17.6 µM (≈ 6.52 µg/mL)

## CCCCCCCCCCCCCCCC(CN=[N+]=[N-])NC(=O)OC(C)(C)C (configuration not stated)
[1]
  MIC: 16 µM (≈ 6.35 µg/mL)

## CCCCc1ccc(CCCCCCCC(CO)NC(=O)OC(C)(C)C)cc1 (configuration not stated)
[1]
  MIC: 16 µM (≈ 6.27 µg/mL)

## CCCCCCCCCCCCCCCC(CNCCCC)NC(=O)OC(C)(C)C (configuration not stated)
[1]
  MIC: 8 µM (≈ 3.41 µg/mL)

## CCCCCCCCCCCCCCCCCC(CO)NCC (configuration not stated)
[1]
  MIC: 16 µM (≈ 5.24 µg/mL)

## CCCCCCCCCCCCCCCC(CO)NCCCC (configuration not stated)
[1]
  MIC: 64 µM (≈ 21 µg/mL)

## CCCCCCCCCCCCCCCC(COCc1ccccc1)NCC (configuration not stated)
[1]
  MIC: 16 µM (≈ 6.23 µg/mL)

## CCCCCCCCCCCCCCCC(CO)NCC (configuration not stated)
[1]
  MIC: 32 µM (≈ 9.59 µg/mL)

## CCCCCCCCCCCCCCCC(CNCC(=O)OCC)NC(=O)OC(C)(C)C (configuration not stated)
[1]
  MIC: 32 µM (≈ 14.6 µg/mL)

## CCCCCCCCCCCCCCCC(CO)NCCCCCCCCCC (configuration not stated)
[1]
  MIC: 64 µM (≈ 26.4 µg/mL)

## CCCCCCCCCCCCCCCCCC(CO)N(CC)CC (configuration not stated)
[1]
  MIC: > 64 µM

## CCCCCCCCCCCCCCCC(COCc1ccccc1)NCCCCCC (configuration not stated)
[1]
  MIC: 64 µM (≈ 28.5 µg/mL)

## CCCCCCCCCCCCCCCCCCCC(COCc1ccccc1)NCC (configuration not stated)
[1]
  MIC: 16 µM (≈ 7.13 µg/mL)

## NCC[C@H](O)C(=O)N[C@@H]1C[C@H](N)[C@@H](O[C@H]2O[C@H](CN)[C@@H](O)[C@H](O)[C@H]2O)[C@H](O)[C@H]1O[C@H]1O[C@H](CO)[C@@H](O)[C@H](N)[C@H]1O [AMIKACIN]
[18]
  FIC: 0.25
[1]
  MIC: 0.8 µM and 0.63 µg/mL
[19]
  FIC: 0.25
[20]
  FIC: 0.125

## CC[C@@H](CO)NCCN[C@@H](CC)CO [ETHAMBUTOL]
[18]
  FIC: 0.25
[1]
  MIC: 28.8 µM and 8 µg/mL
[19]
  FIC: 0.25
[20]
  FIC: 1

## NNC(=O)c1ccncc1 [ISONIAZID]
[18]
  FIC: 0.125
[1]
  MIC: 934 µM and 128 µg/mL
[19]
  FIC: 0.5
[20]
  FIC: 0.125

## C[C@H]1COc2c(N3CCN(C)CC3)c(F)cc3c(=O)c(C(=O)O)cn1c23 [LEVOFLOXACIN ANHYDROUS]
[18]
  FIC: 0.5
[1]
  MIC: 5.5 µM and 2 µg/mL
[19]
  FIC: 0.5
[20]
  FIC: 0.5

## CO[C@H]1/C=C/O[C@@]2(C)Oc3c(C)c(O)c4c(O)c(c(/C=N/N5CCN(C)CC5)c(O)c4c3C2=O)NC(=O)/C(C)=C\C=C\[C@H](C)[C@H](O)[C@@H](C)[C@@H](O)[C@@H](C)[C@H](OC(C)=O)[C@@H]1C [RIFAMPIN]
[18]
  FIC: 0.031
[1]
  MIC: 78 µM and 64 µg/mL
[19]
  FIC: 0.25
[20]
  FIC: 0.063
